# Measurements published in patent publication US6537566B1, “Compositions and methods for the non-invasive treatment of uterine fibroid cells” (priority 1999, dated 2003).
# Read-outs that look alike come from different tables or passages of the source.
# Legend:
# Format in all cases: cell-based, human
# [1] = system: uterine fibroid leiomyoma cells; assay: DNA content assay of growing leiomyoma cells treated with FGI agents (Example 1, 4 days); conditions: for IC50: read-out: IC50 (= 80 ng) Concentration; for NG0 (= 32 ng) Concentration (no net growth): concentration giving the time=0 DNA content of 32 ng/well
# Source text: A DNA assay was used for determining the effect of potential FGI agents on the growth of uterine fibroid leiomyoma cells. The assay determined the effect of various concentrations of an individual FGI agent on the accumulation of DNA in an actively growing population of uterine fibroid leiomyoma cells. The accumulation of DNA in treated cell populations relative to untreated controls was an indication the efficacy of the FGI agent for inhibiting fibroid cell proliferation.
# (§1) Method: Fibroid tissue was obtained from patients undergoing hysterectomy for symptomatic leiomyomata, and leiomyoma cells were isolated from the tissue using standard techniques. Leiomyoma cells in 5% fetal calf serum were plated at 22,000 cells/well in 12-well plate. Cells were allowed to acclimate and grow for 24 hours before the start of the experiment. At time=0, the DNA content of the wells was determined (32+/−0.6 ng/well), and the cells were treated with different concentrations of the FGI agents as shown in FIG. 3A in 5% fetal calf serum. Controls received fetal calf serum alone. After treatment at time=4 days, the DNA content of each well was determined using standard methods. All points were determined in triplicate and are the mean +/− standard error.
# The significance of the IC50 point was that it represented an estimated point relative to which a substrate may in part be gauged as an effective FGI agent. The NG0 (no net growth) was the point on the graph corresponding to the time=0 or starting DNA content of the wells.
# [2] = system: uterine fibroid leiomyoma cells; assay: Growth of leiomyoma cells with low added concentrations over background tocopherols (Example 2); conditions: added concentrations ranging from 1 to 5 μM over background tocopherols (about 10 μM); 4 days
# Method: as §1
# Method: See Example 1 above generally. Vitamin C, an antioxidant that is not an identified potential FGI agent, was used as an experimental substrate control.
# Results: The results are illustrated in FIGS. 4A and 4B. The DNA concentration of controls at time=4 days was 99+/−0.2 ng/well (the “0” concentration in FIGS. 4A & 4B). Growth of uterine fibroid cells clearly occurred in the presence of a background concentration of tocopherols. […] However, upon the addition of 10 μM over back ground tocopherol treated wells began to show detectable inhibition of the growth of uterine fibroid cell populations.
# [3] = system: uterine fibroid leiomyoma cells; assay: Separate DNA content experiment under conditions similar to Example 1, read at 6 days (FIG. 3B); conditions: DNA content determined at time=6 days
# Method: as §1
# FIG. 3B is a graph of the results for α-tocopherol succinate from a separate experiment under conditions similar to Example 1. Here, the DNA content of treated wells was determined at time=6 days. The area under the horizontal line indicates the concentration at which net cell death occurred in this experiment (˜38 μM).
# [4] = system: uterine fibroid leiomyoma cells; assay: DNA content experiment similar to Example 1, GF109203x versus α-tocopherol succinate, 6 days (FIGS. 5A & 5B); conditions: comparison of FIG. 5A with 5B; DNA content at time=6 days
# Method: as §1
# Clearly from Examples 1 & 2, tocopherol related substrates are potential FGI agents. This was expected because of tocopherol's effect on the PKC pathway. However, non-tocopherol related substrates that can appropriate appropriately effect the PKC pathway were also identified as potential FGI agents. Therefore, GF109203x, a protein kinase C inhibitor, was tested in an experiment similar to that of Example 1 to determine the efficacy of a non-tocopherol related, identified potential FGI agent to inhibit fibroid leiomyoma cell proliferation. Here, the DNA content of treated wells was determined at time=6 days. […]
# [5] = Homo sapiens, 96 h, increase in DNA content 50% of that of control wells, time=4 days, 5% fetal calf serum, N/A = condition not attained
# [6] = time=4 days, 5% fetal calf serum, N/A = condition not attained
# [7] = increase in DNA content 50% of that of control wells, time=4 days, 5% fetal calf serum, N/A = condition not attained
SMILES,"NG0 (= 32 ng) Concentration (no net growth) [1, 6] [µM]",growth of uterine fibroid cell populations at low added concentrations [2],other results
Cc1c(C)c2c(c(C)c1O)CCC(C)(COc1ccc(CC3SC(=O)NC3=O)cc1)O2 (centres unmarked) [Troglitazone],50,–,"IC50 [1, 5]: 12 µM"
Cc1cc(O)c(C)c2c1O[C@](C)(CCC[C@H](C)CCC[C@H](C)CCCC(C)C)CC2 [β-Tocopherol],–,substantially uninhibited,–
CN(CCOc1ccc(CC2SC(=O)NC2=O)cc1)c1ccccn1 (centres unmarked) [Rosiglitazone],90,–,"IC50 ([1]; Homo sapiens, 96 h): 40 µM"
Cc1c(C)c2c(c(C)c1OC(=O)CCC(=O)O)CC[C@@](C)(CCC[C@H](C)CCC[C@H](C)CCCC(C)C)O2 [α-Tocopherol succinate],38,substantially uninhibited,"IC50 [1, 7]: 22 µM; concentration at which net cell death occurred [3]: ~38 µM"
CN(C)CCCn1cc(C2=C(c3c[nH]c4ccccc34)C(=O)NC2=O)c2ccccc21 [GF109203x],–,–,efficiency at inhibiting fibroid leiomyoma cell proliferation relative to α-tocopherol succinate [4]: ~5 time
Cc1c(C)c2c(c(C)c1O)CC[C@@](C)(CCC[C@H](C)CCC[C@H](C)CCCC(C)C)O2 [α-Tocopherol],–,substantially uninhibited,"IC50 [1, 7]: 27 µM"
CCc1ccc(CCOc2ccc(CC3SC(=O)NC3=O)cc2)nc1 (centres unmarked) [Pioglitazone],88,–,"IC50 [1, 5]: 40 µM"
